In assay [1] the test system is NCI-H292 lung cancer cells. Description: FDA drug screening, complete media vs cholesterol-free media with simvastatin (TABLE 2). In kind it is cell-based, human.
For assay [2], the system named is NCI-H292 lung cancer cells. The assay can be described thus: FDA drug screening, complete media vs cholesterol-free media without statin (TABLE 1). In kind it is cell-based, human.
Where [3] appears, read: NCI-H292 cells, cholesterol-free media with simvastatin 0.04 μM, cell growth value in FDA drug screen.
Where [4] appears, read: NCI-H292 cells, complete media, cell growth value in FDA drug screen.
Where [5] appears, read: complete media minus cholesterol-free media + simvastatin, >0 enhanced anti-cancer activity, about 0 neutral, <0 antagonist.
[6] abbreviates: Complete minus Cholesterol-free, greater than 0 enhanced anti-cancer activity, about 0 neutral, below 0 antagonists.
[7] abbreviates: NCI-H292 cells in cholesterol-free media without statin.
Where [8] appears, read: NCI-H292 cells in complete media.
[9] abbreviates: NCI-H292 cells, FDA drug library screen, cholesterol-free media with simvastatin 0.04 μM.
Where [10] appears, read: NCI-H292 cells, FDA drug library screen, complete media.
Setting [11] is: NCI-H292 cells, cholesterol-free media without statin, FDA drug library screen.
Setting [12] is: NCI-H292 cells, complete media, FDA drug library screen.
Where [13] appears, read: NCI-H292 cells, cholesterol-free media with simvastatin 0.04 μM, FDA drug library screen (TABLE 2).
Where [14] appears, read: NCI-H292 cells, complete media, FDA drug library screen (TABLE 2).
[15] abbreviates: complete media minus cholesterol-free media + simvastatin (0.04 μM), >0 enhanced anti-cancer activity, about 0 neutral, <0 antagonist.
[16] abbreviates: NCI-H292 cells, cholesterol-free media without statin.
[17] abbreviates: complete vs cholesterol-free media, greater than 0 enhanced anti-cancer activity, about 0 neutral, below 0 antagonists.
Where [18] appears, read: complete media vs cholesterol-free media + simvastatin (0.04 μM), >0 enhanced anti-cancer activity, about 0 neutral, <0 antagonist.
[19] abbreviates: complete vs cholesterol-free media, >0 enhanced anti-cancer activity, about 0 neutral, <0 antagonist.
[20] abbreviates: NCI-H292 cells, FDA library drug in cholesterol-free media with simvastatin 0.04 μM.
Where [21] appears, read: NCI-H292 cells, FDA library drug in complete media.
Setting [22] is: Complete minus Cholesterol-free, >0 enhanced anti-cancer activity, about 0 neutral, <0 antagonist.
[23] abbreviates: Complete minus Cholesterol-free, greater than 0 enhanced anti-cancer activity, about 0 neutral, below 0 antagonist.
[24] abbreviates: NCI-H292 cells, FDA drug library screen, cholesterol-free media without statin.
Where [25] appears, read: NCI-H292 cells, drug in cholesterol-free media with simvastatin 0.04 μM.
Setting [26] is: NCI-H292 cells, drug in complete media.

Structures can show the parent of a compound that is named as a salt. Where two headings read alike, the source gives them in different places.

As for `Cc1ncc([N+](=O)[O-])n1CC(O)CCl` (stereo not drawn) [Ornidazole (Levo-)], in assay [1] (setting [3]), the “Cholesterol-free media + simvastatin (0.04 μM)” value is on record as 0.9725. For the same molecule, the “Complete Media” value in assay [1] (setting [4]) is on record as 1.072. Further, the Difference in assay [1] (setting [5]) is 0.10; in assay [2] (setting [6]) it was −0.58. For the same molecule, the Cholesterol-free in assay [2] (setting [7]) is listed as 1.634. The molecule further returned a Complete in assay [2] (setting [8]) of 1.058.
Take `CCN1CCCC(OC(=O)C(c2ccccc2)c2ccccc2)C1` (stereo not drawn) [Piperidolate]: in assay [1], the “Cholesterol-free media + simvastatin (0.04 μM)” value worked out at 0.8957, the “Complete Media” value came out at 1.487 and the Difference is listed as 0.59. In assay [2], this molecule showed a Cholesterol-free of 1.19, a Complete of 0.6819 and a Difference of −0.51.
For `C=C[C@@H]1C[C@]1(NC(=O)[C@@H]1C[C@@H]2CN1C(=O)[C@H](C(C)(C)C)NC(=O)O[C@@H]1C[C@H]1CCCCCc1nc3ccc(OC)cc3nc1O2)C(=O)[N-]S(=O)(=O)C1CC1.[K+]` [Grazoprevir potassium salt], in assay [1] (setting [9]), the “Cholesterol-free media + simvastatin (0.04 μM)” value came out at 1.46. In assay [1] (setting [10]), the “Complete Media” value amounted to 1.827. Also, the Difference in assay [1] (complete media minus cholesterol-free media + simvastatin, […]) is reported as 0.37; in assay [2] (Complete minus Cholesterol-free, […]), −0.06. Besides, the Cholesterol-free in assay [2] (setting [11]) is 1.089. The molecule further displayed a Complete in assay [2] (setting [12]) of 1.03.
With `Nc1nc(Cl)nc2c1ncn2[C@@H]1O[C@H](CO)[C@@H](O)[C@@H]1F` [Clofarabine], the “Cholesterol-free media + simvastatin (0.04 μM)” value in assay [1] (setting [13]) is 0.03305. Besides, in assay [1] (setting [14]), the “Complete Media” value is reported as 0.03609. For the same molecule, the Difference is recorded as 0.00 in assay [1] (setting [15]) and −0.35 in assay [2] (setting [17]). The molecule further gave a Cholesterol-free in assay [2] (setting [16]) of 0.802. In assay [2] (NCI-H292 cells, complete media), the Complete was 0.4474.
Turning to `CC(C)C[C@H](NC(=O)CNC(=O)c1cc(Cl)ccc1Cl)B1OC(=O)C(CC(=O)O)(CC(=O)O)O1` [Ixazomib citrate], in assay [1] (setting [9]), the “Cholesterol-free media + simvastatin (0.04 μM)” value was determined as 0.141. Also, the “Complete Media” value in assay [1] (setting [10]) is listed as 0.02787. For the same molecule, the Difference is recorded as −0.11 in assay [1] (setting [18]) and 0.11 in assay [2] (setting [19]). In assay [2] (setting [11]), the Cholesterol-free is given as −0.00597. Moreover, in assay [2] (setting [12]), the Complete came to 0.1018.
In the case of `C[N+](C)(C)CCOP(=O)(O)OP(=O)([O-])OC[C@H]1O[C@@H](n2ccc(N)nc2=O)[C@H](O)[C@@H]1O` [Citicoline], in assay [1] (setting [9]), the “Cholesterol-free media + simvastatin (0.04 μM)” value is given as 0.6677. The “Complete Media” value in assay [1] (setting [10]) is reported as 1.557. The values for the Difference in assay [1] (setting [5]) and in assay [2] (setting [19]) were 0.89 and 0.29, respectively. For the same molecule, in assay [2] (setting [11]), the Cholesterol-free is reported as 0.7726. This molecule also yielded a Complete in assay [2] (setting [12]) of 1.062.
Turning to `O=C(O)[C@H]1/C(=C/CO)O[C@@H]2CC(=O)N21` [Clavulanate (lithium)], the “Cholesterol-free media + simvastatin (0.04 μM)” value in assay [1] (setting [20]) is listed as 1.974. Further, the “Complete Media” value in assay [1] (setting [21]) came to 1.387. In addition, the results for the Difference in assay [1] (setting [18]) and in assay [2] (setting [22]) were −0.59 and 0.07, respectively. This molecule had a Cholesterol-free in assay [2] (setting [11]) of 1.545. In addition, the Complete in assay [2] (setting [12]) was 1.617.
Turning to `CN1[C@@H]2CC[C@H]1C[C@@H](OC(=O)c1c[nH]c3ccccc13)C2` [Tropisetron (Hydrochloride)], in assay [1] (setting [9]), the “Cholesterol-free media + simvastatin (0.04 μM)” value is 1.118. Besides, the “Complete Media” value in assay [1] (setting [10]) came out at 0.9866. Also, the values for the Difference in assay [1] (setting [18]) and in assay [2] (setting [22]) were −0.13 and −0.30, respectively. The molecule also gave a Cholesterol-free in assay [2] (setting [16]) of 1.166. In assay [2] (NCI-H292 cells, complete media), this molecule had a Complete of 0.8628.
In the case of `CO/N=C(\C(=O)N[C@@H]1C(=O)N2C(C(=O)O)=C(Cn3ccc(=N)n3CCO)CS[C@H]12)c1csc(N)n1.O=S(=O)(O)O` [Cefoselis (sulfate)], the “Cholesterol-free media + simvastatin (0.04 μM)” value in assay [1] (setting [3]) is reported as 1.07. In addition, in assay [1] (setting [4]), the “Complete Media” value was determined as 1.107. Further, the Difference in assay [1] (setting [5]) turned out to be 0.04; in assay [2] (setting [19]) it was 0.16. Moreover, the Cholesterol-free in assay [2] (setting [11]) turned out to be 0.955. In assay [2] (setting [12]), this molecule yielded a Complete of 1.116.
As to `CN(C/C=C/c1ccccc1)Cc1cccc2ccccc12` [Naftifine (hydrochloride)], the “Cholesterol-free media + simvastatin (0.04 μM)” value in assay [1] (setting [9]) was determined as 0.9055. For the same molecule, the “Complete Media” value in assay [1] (setting [10]) was 1.136. Moreover, the Difference is 0.23 in assay [1] (setting [5]) and −0.88 in assay [2] (setting [6]). The same molecule yielded a Cholesterol-free in assay [2] (setting [7]) of 1.921. This molecule also displayed a Complete in assay [2] (setting [8]) of 1.037.
On to `CO/N=C(\C(=O)N[C@@H]1C(=O)N2C(C(=O)OC(C)OC(C)=O)=C(COC(N)=O)CS[C@H]12)c1ccco1` (stereo partly drawn) [Cefuroxime axetil], for which the “Cholesterol-free media + simvastatin (0.04 μM)” value in assay [1] (setting [3]) is reported as 1.05. Besides, the “Complete Media” value in assay [1] (setting [4]) is recorded as 1.073. Besides, the Difference in assay [1] (setting [5]) is 0.02; in assay [2] (setting [23]), −0.18. Moreover, in assay [2] (setting [24]), the Cholesterol-free was found to be 0.8605. In addition, in assay [2] (setting [10]), the Complete is listed as 0.6767.
Take `CC[C@@H]1/C=C(\C)C[C@H](C)C[C@H](OC)[C@H]2O[C@@](O)(C(=O)C(=O)N3CCCC[C@H]3C(=O)O[C@H](/C(C)=C/[C@@H]3CC[C@H](Cl)[C@H](OC)C3)[C@H](C)[C@@H](O)CC1=O)[C@H](C)C[C@@H]2OC` [Pimecrolimus]: in assay [1] (setting [25]), the “Cholesterol-free media + simvastatin (0.04 μM)” value is recorded as 1.1. Also, the “Complete Media” value in assay [1] (setting [26]) is 0.8909. For the same molecule, the results for the Difference in assay [1] (setting [18]) and in assay [2] (setting [22]) were −0.21 and −0.26, respectively. Moreover, the Cholesterol-free in assay [2] (setting [16]) came to 1.022. Besides, the Complete in assay [2] (NCI-H292 cells, complete media) was 0.7576.
Regarding `CC(C)C[C@H](NC(=O)[C@@H](O)[C@H](N)Cc1ccccc1)C(=O)O` [Bestatin], the “Cholesterol-free media + simvastatin (0.04 μM)” value in assay [1] (setting [20]) was 1.263. Besides, in assay [1] (setting [21]), the “Complete Media” value amounted to 0.9917. Moreover, the Difference in assay [1] (setting [18]) was −0.27; in assay [2] (setting [17]) it was −0.44. Besides, in assay [2] (setting [16]), the Cholesterol-free was 1.255. The molecule further had a Complete in assay [2] (NCI-H292 cells, complete media) of 0.8191.
With `CCC[C@H](NC(=O)[C@@H]1[C@H]2CCC[C@H]2CN1C(=O)[C@@H](NC(=O)[C@@H](NC(=O)c1cnccn1)C1CCCCC1)C(C)(C)C)C(=O)C(=O)NC1CC1` [Telaprevir], the “Cholesterol-free media + simvastatin (0.04 μM)” value in assay [1] (setting [9]) was 1.084. Moreover, in assay [1] (setting [10]), the “Complete Media” value stood at 0.9529. Moreover, the Difference was −0.13 in assay [1] (complete media vs cholesterol-free media + simvastatin (0.04 μM), […]) and −0.39 in assay [2] (complete vs cholesterol-free media, […]). For the same molecule, in assay [2] (setting [16]), the Cholesterol-free stood at 1.55. In addition, in assay [2] (NCI-H292 cells, complete media), the Complete is reported as 1.165.
Take `COc1ccc2cc3[n+](cc2c1OC)CCc1cc2c(cc1-3)OCO2.[Cl-]` [Berberine (chloride)]: the “Cholesterol-free media + simvastatin (0.04 μM)” value in assay [1] (setting [3]) amounted to 0.3544. Also, the “Complete Media” value in assay [1] (setting [4]) was 0.3946. Moreover, the Difference in assay [1] (setting [5]) is 0.04; in assay [2] (setting [23]), −0.09. Moreover, the Cholesterol-free in assay [2] (setting [24]) came out at 0.2752. The Complete in assay [2] (setting [10]) turned out to be 0.1873.
For the molecule `Cl.NCCC[C@](N)(C(=O)O)C(F)F` [L-Eflornithine (monohydrochloride)], in assay [1] (setting [13]), the “Cholesterol-free media + simvastatin (0.04 μM)” value is reported as 1.266. In addition, the “Complete Media” value in assay [1] (setting [14]) is given as 1.268. The Difference came out at 0.00 in assay [1] (setting [15]) and 0.02 in assay [2] (setting [22]). The Cholesterol-free in assay [2] (setting [11]) worked out at 0.8255. In assay [2] (setting [12]), the Complete is 0.8469.
`CC[C@H]1OC(=O)[C@H](C)[C@@H](O[C@H]2C[C@@](C)(OC)[C@@H](O)[C@H](C)O2)[C@H](C)[C@@H](O[C@@H]2O[C@H](C)C[C@H](N(C)C)[C@H]2O)[C@](C)(O)C[C@@H](C)CN(C)[C@H](C)[C@@H](O)[C@]1(C)O` [Azithromycin]: in assay [1] (setting [25]), the “Cholesterol-free media + simvastatin (0.04 μM)” value amounted to 1.336. For the same molecule, the “Complete Media” value in assay [1] (setting [26]) is reported as 1.162. For the same molecule, the Difference in assay [1] (setting [18]) was −0.17; in assay [2] (setting [22]), 0.05. The molecule also came in with a Cholesterol-free in assay [2] (setting [11]) of 1.249. For the same molecule, the Complete in assay [2] (setting [12]) stood at 1.303.

(Values after patent publication US20250144067A1, “PERSONALIZED STARVATION THERAPY FOR CANCER” (Faeth Therapeutics, Inc., priority 2021, published 2025).)
